{"source": "patent US20080025960A1", "about": "“Detergents with stabilized enzyme systems” (priority 2006, published 2008)", "key": {"choline oxidase": {"target": "T1, choline oxidase (Arthrobacter globiformis, UniProt Q7X2H8)", "T1 sequence (Q7X2H8 1-546)": "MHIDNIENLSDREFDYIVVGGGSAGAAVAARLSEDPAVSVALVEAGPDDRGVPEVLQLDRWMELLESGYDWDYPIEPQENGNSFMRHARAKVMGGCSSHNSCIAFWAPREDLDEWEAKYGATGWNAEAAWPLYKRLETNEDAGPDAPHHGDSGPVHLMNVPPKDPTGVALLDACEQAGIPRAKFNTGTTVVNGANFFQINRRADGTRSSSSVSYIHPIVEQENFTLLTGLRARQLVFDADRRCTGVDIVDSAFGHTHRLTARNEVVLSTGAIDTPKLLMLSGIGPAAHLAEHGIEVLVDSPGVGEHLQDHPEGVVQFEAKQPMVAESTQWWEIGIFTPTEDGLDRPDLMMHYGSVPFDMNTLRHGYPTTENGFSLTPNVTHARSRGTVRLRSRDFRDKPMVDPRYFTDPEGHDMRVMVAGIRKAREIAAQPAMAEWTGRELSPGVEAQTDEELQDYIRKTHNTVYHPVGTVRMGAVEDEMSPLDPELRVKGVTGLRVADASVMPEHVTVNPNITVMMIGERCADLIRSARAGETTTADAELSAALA", "experiment": "H2O2 in control buffer or AATCC liquid detergent stock with choline oxidase, choline and inhibitor", "assay_type": "biochemical", "conditions": "for H2O2 PPM: T = 0+, 12, 30 and 60, 1M choline chloride, 10U choline oxidase, 100 mM sodium bisulfite inhibitor (pH7)", "experimental": "In this Example, experiments conducted to assess the stabilization of choline oxidase in the presence of its substrate (i.e., choline) and an inhibitor (i.e., sodium bisulfite and 2-amino,2-methyl,1-propanol) is described. In these experiments, AATCC standard detergent was used.\nThe experiments were conducted as described in Example 1. Choline oxidase produces two moles of H2O2 per mole of choline. The results obtained in these experiments confirmed that choline oxidase was stable in AATCC detergent over 24 hour period tested in presence of choline and inhibitors. […] Upon dilution in wash liquor, detergent containing choline oxidase, choline chloride and an inhibitor (e.g., sodium hydrogen sulfite or 2-amino,2-methyl,1-propanol) produced H2O2 over time, as indicated in Table 5."}, "glucose oxidase": {"target": "T2, glucose oxidase (Aspergillus niger, UniProt P13006)", "T2 construct": "purchased Genencor OXYGO L-5000", "T2 sequence (P13006 17-605)": "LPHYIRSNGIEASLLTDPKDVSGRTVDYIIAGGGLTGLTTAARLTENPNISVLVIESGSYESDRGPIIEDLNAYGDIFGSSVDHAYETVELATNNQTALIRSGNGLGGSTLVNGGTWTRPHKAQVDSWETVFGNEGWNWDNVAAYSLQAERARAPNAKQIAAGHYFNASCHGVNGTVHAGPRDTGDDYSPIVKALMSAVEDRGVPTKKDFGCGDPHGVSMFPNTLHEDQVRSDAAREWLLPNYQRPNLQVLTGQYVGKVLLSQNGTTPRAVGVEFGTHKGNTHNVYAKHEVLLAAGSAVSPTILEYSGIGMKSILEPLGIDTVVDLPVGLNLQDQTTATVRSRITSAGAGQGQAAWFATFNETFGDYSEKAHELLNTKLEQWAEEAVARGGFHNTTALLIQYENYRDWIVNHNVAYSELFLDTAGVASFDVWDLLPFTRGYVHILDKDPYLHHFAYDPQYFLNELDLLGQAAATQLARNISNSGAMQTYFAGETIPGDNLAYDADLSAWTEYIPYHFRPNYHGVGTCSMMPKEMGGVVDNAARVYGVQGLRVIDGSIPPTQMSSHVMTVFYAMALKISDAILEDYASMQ", "experiment": "Premature hydrogen peroxide generation by glucose oxidase in control buffer or AATCC liquid detergent stock (as is) with glucose and inhibitor, dipsticks", "assay_type": "biochemical", "conditions": "for Hydrogen Peroxide Generation, PPM H2O2: T = 0+, 500 PPM oxidase; for Hydrogen Peroxide Generation, PPM H2O2 / hydrogen peroxide production / H2O2 generated: as is; for Hydrogen Peroxide Generation, PPM H2O2 / premature hydrogen peroxide generation / H2O2 PPM: 500 mM glucose; for premature hydrogen peroxide generation: liquid detergent formulation, 500 PPM glucose oxidase, over 21 days; for H2O2 PPM: T = 0+, 12, 30, as is, 500 PPM enzyme, 100 mM sodium metabisulfite; for H2O2 generated: time 0+", "text": "In this Example, experiments conducted to assess the stabilization of glucose oxidase in the presence of its substrate (i.e., glucose) and an inhibitor (i.e., sodium hydrogen sulfite) is described. In these experiments, AATCC standard detergent (American Association of Textile Chemists and Colorists Heavy Duty Liquid detergent version 2003 without brightener; key components include linear alkane sulfonate, alcohol ethoxylate, propanediol, citric acid, fatty acid, castic soda and water; purchased from TestFabrics) was used.\nIn these experiments, 100 mM Tris pH 8.3, with 0.005% TWEEN®-100 surfactant used as a positive control. […] Three two-ml tubes were weighed with 0.990 g of AATCC detergent (lot # 01282004) and another three tubes with 0.990 g of control buffer. Then, 90 mg (500 mM) of glucose substrate were added to all of the tubes. Next, 100, 50, and 10 mM sodium hydrogen sulfite (MW 106.1) were added to each tube respectively, including the control buffer and AATCC detergent control. All of the tubes were placed on a rotary plate for an hour to allow good mixing and solubilization of glucose into the detergent. Then, 500 PPM (0.5 mg, 14.88 ul) glucose oxidase (OXYGO™ L-5000, 5379 U/ml; 33.6 mg/ml; Genencor) was added to six 2-ml tubes (three with glucose/bisulfite containing control buffers and three with glucose/bisulfite containing AATCC detergent). All of the tubes were then set on the rotary plate (60 rpm) at room temperature. Hydrogen peroxide production was measured using dipsticks (peroxidase/ABTS—Baker Testrips;Baker) at various times—t=0+minutes, 12 minutes, and 30 minutes. The tube containing 100 mM bisulfite with glucose, glucose oxidase in liquid detergent was further monitored for premature generation of hydrogen peroxide further over a period of time starting at 1 hr, 12 hr, 7 days, 12 days and up to 21 days.\nIn these experiments, 100 mM Tris pH 8.3, with 0.005% TWEEN®-100 surfactant was used as a positive control. […] Three two-ml tubes were weighed with 0.990 g of AATCC detergent (lot # 01282004) and another three tubes with 0.990 g of control buffer.\nThree two-ml tubes containing 0.990 g of AATCC detergent (lot # 01282004) and another three tubes with 0.990 g of control buffer were weighed. Then, 90 mg (500 mM) glucose substrate was added to each tube. Then, 100, 50, and 10 mM sodium metabisulfite were added to each tube respectively (i.e., both control buffer and AATCC detergent-containing tubes). All of the tubes were placed on a rotary plate for an hour to allow good mixing and solubilization of glucose into the detergent. Next, 500 PPM (0.5 mg, 14.88 ul) glucose oxidase (OXYGO™ L-5000, 5379 U/ml; 33.6 mg/ml; Genencor) was added to six 2-ml tubes (three with glucose/metabisulfite containing control buffers and three with glucose/metabisulfite containing AATCC detergent). All of the tubes were then set on the rotary plate (60 rpm) at room temperature. H2O2 production was measured using dipsticks (peroxidase/ABTS), as described in Examples 1 and 2, for t=0+ minutes, 12 minutes, and 30 minutes. The tube containing 100 mM bisulfite with glucose, glucose oxidase in liquid detergent was further monitored for premature generation of hydrogen peroxide further over a period of time starting at 1 hr, 12 hr, 7 days, 12 days and up to 21 days."}, "alcohol oxidase": {"target": "T3, alcohol oxidase (Pichia angusta, UniProt P04841)", "T3 construct": "purchased Sigma", "T3 sequence (P04841 whole entry)": "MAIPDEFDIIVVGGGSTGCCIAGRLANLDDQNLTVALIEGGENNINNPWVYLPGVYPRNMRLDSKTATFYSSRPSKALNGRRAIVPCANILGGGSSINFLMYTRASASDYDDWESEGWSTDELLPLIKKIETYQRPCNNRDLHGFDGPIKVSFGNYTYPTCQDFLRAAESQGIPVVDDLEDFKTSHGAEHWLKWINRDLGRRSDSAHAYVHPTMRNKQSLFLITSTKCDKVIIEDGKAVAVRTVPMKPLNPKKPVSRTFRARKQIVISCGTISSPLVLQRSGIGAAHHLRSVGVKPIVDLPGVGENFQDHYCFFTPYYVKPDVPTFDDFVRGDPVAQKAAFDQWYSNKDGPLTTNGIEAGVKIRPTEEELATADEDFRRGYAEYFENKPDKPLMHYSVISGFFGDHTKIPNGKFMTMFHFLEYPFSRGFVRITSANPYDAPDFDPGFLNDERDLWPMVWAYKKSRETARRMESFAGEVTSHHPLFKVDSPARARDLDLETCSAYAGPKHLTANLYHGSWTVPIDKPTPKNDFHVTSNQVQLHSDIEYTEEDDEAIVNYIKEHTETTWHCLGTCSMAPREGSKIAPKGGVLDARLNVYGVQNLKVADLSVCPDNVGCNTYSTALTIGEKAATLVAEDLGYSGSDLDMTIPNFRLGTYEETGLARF", "experiment": "Hydrogen peroxide concentration in control buffer or AATCC liquid detergent stock (as is) with alcohol oxidase, ethanol and inhibitor", "assay_type": "biochemical, Hansunela sp.", "conditions": "for character of alcohol oxidase inhibition: 100 mM concentration tested; for premature generation of H2O2 in AATCC detergent stock / H2O2 PPM: 100 mM inhibitor; for premature generation of H2O2 in AATCC detergent stock: period of investigation 120 minutes; for H2O2 PPM: as is, 1 M ethanol, 10U enzyme", "experimental": "In these experiments, the stability of alcohol oxidase obtained from Hansunela sp., (100 U/ml. 22 U/mg, 13 mg total solid in vial, 7.7 U/mg solid; Sigma) in AATCC liquid detergent was tested. In these experiments, 10 U of the alcohol oxidase were used in liquid detergent stock for each experiment. For testing, 1M ethanol was mixed into the detergent (46 mg ethanol in 990 mg detergent). […] The experiments were conducted as described above in Examples 1 and 3."}}}
{"smiles": "O=S([O-])O.[Na+]", "note": "[bisulfite, sodium hydrogen sulfite]", "values": [{"measurement": "H2O2 PPM", "setting": "choline oxidase; AATCC Detergent", "result": 0, "unit": "PPM"}, {"measurement": "H2O2 PPM", "setting": "choline oxidase; Control Buffer", "result": 0, "unit": "PPM"}, {"measurement": "premature generation of H2O2 in AATCC detergent stock", "setting": "choline oxidase; sodium hydrogen sulfite 100 mM concentration", "result": "able to stop premature generation of H2O2"}, {"measurement": "character of choline oxidase inhibition", "setting": "choline oxidase; sodium hydrogen sulfite at 100 mM concentration tested", "result": "reversible inhibitor"}, {"measurement": "Hydrogen Peroxide Generation, PPM H2O2", "setting": "glucose oxidase; AATCC Detergent, 10 mM bisulfite", "result": ">10", "unit": "PPM"}, {"measurement": "Hydrogen Peroxide Generation, PPM H2O2", "setting": "glucose oxidase; AATCC Detergent, 50 mM bisulfite", "result": 10, "unit": "PPM"}, {"measurement": "Hydrogen Peroxide Generation, PPM H2O2", "setting": "glucose oxidase; AATCC Detergent, 100 mM bisulfite", "result": 0, "unit": "PPM"}, {"measurement": "Hydrogen Peroxide Generation, PPM H2O2", "setting": "glucose oxidase; Control Buffer, 10 mM bisulfite", "result": 1, "unit": "PPM"}, {"measurement": "Hydrogen Peroxide Generation, PPM H2O2", "setting": "glucose oxidase; Control Buffer, 50 mM bisulfite", "result": 0, "unit": "PPM"}, {"measurement": "Hydrogen Peroxide Generation, PPM H2O2", "setting": "glucose oxidase; Control Buffer, 100 mM bisulfite", "result": 0, "unit": "PPM"}, {"measurement": "hydrogen peroxide production", "setting": "glucose oxidase; Example 3 (metabisulfite), buffer control mixture, 50 mM, various time periods tested", "result": "did not produce any hydrogen peroxide"}, {"measurement": "hydrogen peroxide production", "setting": "glucose oxidase; Example 3 (metabisulfite), buffer control mixture, 100 mM, time periods tested", "result": "did not produce any hydrogen peroxide"}, {"measurement": "hydrogen peroxide production", "setting": "glucose oxidase; buffer control mixture, 50 mM bisulfite, various time periods tested", "result": "did not produce any hydrogen peroxide"}, {"measurement": "hydrogen peroxide production", "setting": "glucose oxidase; buffer control mixture, 100 mM bisulfite, time periods tested", "result": "did not produce any hydrogen peroxide"}, {"measurement": "premature hydrogen peroxide generation", "setting": "glucose oxidase; 100 mM sodium hydrogen sulfite", "result": "no premature hydrogen peroxide generation was observed"}, {"measurement": "character of alcohol oxidase inhibition", "setting": "alcohol oxidase", "result": "reversible inhibitors"}, {"measurement": "premature generation of H2O2 in AATCC detergent stock", "setting": "alcohol oxidase", "result": "able to stop premature generation of H2O2"}, {"measurement": "H2O2 PPM", "setting": "alcohol oxidase; AATCC Detergent, T = 0+", "result": 0, "unit": "PPM"}, {"measurement": "H2O2 PPM", "setting": "alcohol oxidase; AATCC Detergent, T = 12 min", "result": 0, "unit": "PPM"}, {"measurement": "H2O2 PPM", "setting": "alcohol oxidase; AATCC Detergent, T = 30 min", "result": 0, "unit": "PPM"}, {"measurement": "H2O2 PPM", "setting": "alcohol oxidase; AATCC Detergent, T = 120 min", "result": "0, PPM"}, {"measurement": "H2O2 PPM", "setting": "alcohol oxidase; Control Buffer, T = 0+", "result": 0, "unit": "PPM"}, {"measurement": "H2O2 PPM", "setting": "alcohol oxidase; Control Buffer, T = 12 min", "result": 0, "unit": "PPM"}, {"measurement": "H2O2 PPM", "setting": "alcohol oxidase; Control Buffer, T = 30 min", "result": 0, "unit": "PPM"}, {"measurement": "H2O2 PPM", "setting": "alcohol oxidase; Control Buffer, T = 120 min", "result": 0, "unit": "PPM"}]}
{"smiles": "O=S([O-])S(=O)(=O)[O-].[Na+].[Na+]", "note": "[sodium metabisulfite]", "values": [{"measurement": "H2O2 PPM", "setting": "glucose oxidase; AATCC Detergent", "result": 0, "unit": "PPM"}, {"measurement": "H2O2 PPM", "setting": "glucose oxidase; Control Buffer", "result": 0, "unit": "PPM"}, {"measurement": "H2O2 generated", "setting": "glucose oxidase; buffer control mixture, 10 mM metabisulfite", "result": 1, "unit": "PPM"}, {"measurement": "H2O2 generated", "setting": "glucose oxidase; detergent mixture, 10 mM metabisulfite", "result": "> 10", "unit": "PPM"}, {"measurement": "H2O2 generated", "setting": "glucose oxidase; detergent mixture, 50 mM metabisulfite", "result": "> 10", "unit": "PPM"}, {"measurement": "premature hydrogen peroxide generation", "setting": "glucose oxidase; 100 mM inhibitor", "result": "no premature hydrogen peroxide generation was observed"}, {"measurement": "character of alcohol oxidase inhibition", "setting": "alcohol oxidase", "result": "reversible inhibitors"}, {"measurement": "premature generation of H2O2 in AATCC detergent stock", "setting": "alcohol oxidase", "result": "able to stop premature generation of H2O2"}, {"measurement": "H2O2 PPM", "setting": "alcohol oxidase; AATCC Detergent, T = 0+", "result": 0, "unit": "PPM"}, {"measurement": "H2O2 PPM", "setting": "alcohol oxidase; AATCC Detergent, T = 12 min", "result": 0, "unit": "PPM"}, {"measurement": "H2O2 PPM", "setting": "alcohol oxidase; AATCC Detergent, T = 30 min", "result": 0, "unit": "PPM"}, {"measurement": "H2O2 PPM", "setting": "alcohol oxidase; AATCC Detergent, T = 120 min", "result": "0, PPM"}, {"measurement": "H2O2 PPM", "setting": "alcohol oxidase; Control Buffer, T = 0+", "result": 0, "unit": "PPM"}, {"measurement": "H2O2 PPM", "setting": "alcohol oxidase; Control Buffer, T = 12 min", "result": 0, "unit": "PPM"}, {"measurement": "H2O2 PPM", "setting": "alcohol oxidase; Control Buffer, T = 30 min", "result": 0, "unit": "PPM"}, {"measurement": "H2O2 PPM", "setting": "alcohol oxidase; Control Buffer, T = 120 min", "result": 0, "unit": "PPM"}]}
